Experimental data as given in patent publication US20240285497A1, “METHOD FOR EVALUATING AN ABILITY OF A TEST SAMPLE TO TRIGGER A FOREIGN BODY REACTION IN THE SKIN, A METHOD FOR SCREENING A SUBSTANCE HAVING AN ABILITY TO INHIBIT A FOREIGN BODY REACTION IN THE SKIN, AND AN AGENT FOR INHIBITING A FOREIGN BODY REACTION IN THE SKIN” (priority 2021, published 2024).
Marks after values point to notes of the source that are not given here.

Experiments:
XRE-NLuc::HaCaT cells = test: in vitro; conditions: read-out: LC50; XRE-NLuc::HaCaT cells, median lethal concentration
Experimental: After the above-described incubation for 24 hours, the number of cells in each well was counted by a colorimetric method based on the degradation of tetrazolium salt (WST-1) by mitochondrial dehydrogenase in viable cells. Specifically, 3 μL of Premix WST-1 (Product Name “Premix WST-1 Cell Proliferation Assay System”; Takara Bio Inc., Shiga, Japan; Catalogue No.: MK400) was added to each well of 96 well plates, and then the cells were cultured for 1 hour at 37° C., 5% CO2. Thereafter, 93 μL of cell culture supernatant was removed from each well to measure the absorbance of the supernatant in each well. The removed supernatants were transferred to transparent 96 well plates, and then the absorbance at 450 nm (A450) and, as a reference wavelength, the absorbance at 670 nm (A670) were measured using iMark microplate reader (Bio-Rad; Catalogue No.: 168-1130JA). A value (A450-A670) was obtained by subtracting the absorbance at 670 nm (A670) from the absorbance at 450 nm (A450). The relative viable cell count (%) was expressed as a relative value with the value (A450-A670) obtained for the negative control as 100%.
The ability of each test sample to trigger a foreign body reaction was evaluated using XRE-NLuc::HaCaT cells in the same manner as in Experiment 1-2, except that I3C (Indole-3-carbinol, CAS RN: 700-06-1), ITE (2-(1′H-indole-3′-carbonyl)-thiazole-4-carboxylic acid methyl ester, CAS RN: 448906-42-1), and Indirubin (CAS RN: 479-41-4) were used instead of FICZ as test samples and the amount of each test sample added to the DMEM medium was appropriately changed.

[1] = tested on: human liver cancer-derived cell line HepG2 cells; conditions: cited from earlier work
[2] = tested on: xenobiotic responsive element (XRE); test: Screening: inhibition of FICZ-triggered reporter protein expression in XRE-NLuc::HaCaT cells; assay type: cell-based, human; conditions: FICZ 5,000 nM, 24 hours
Experimental: First, in the same manner as in Experiment 1-2, XRE-NLuc::HaCaT cells were suspended in a DMEM medium at the density of 1×10^5 cell/mL, and 100 μL of the thus obtained suspension was added to each well of white 96-well plates (Thermo Fisher Scientific, MA, U.S.A.; Catalogue No.: 136102) so that a number of the cells in each well was 10,000 cells/well. In accordance with the conventional method, the cells were incubated for 24 hours at 37° C. and 5% CO2. Thereafter, the DMEM medium was removed, and 100 μL of a new DMEM medium containing […] of FICZ, which was confirmed to activate the expression of the reporter protein in Experiment 1-2, and a candidate substance at a predetermined concentration. Meanwhile, reference samples were also prepared by adding 100 μL of a DMEM medium containing 5,000 nM of FICZ but not containing candidate substances. In this experiment, 5-hydroxy-4-phenyl-2(5H)butenolide (hereinafter also referred to as “Fraglide-1” or “FG1”) and, as a positive control, cinnamaldehyde, which is known to have an effect of inhibiting a foreign body reaction in which a xenobiotic responsive element (XRE) is involved, were used as test substances. After incubation for 24 hours at 37° C. and 5% CO2, the expression level of the reporter protein (luminescence intensity) and the viable cell count were measured in accordance with the method described in Experiment 1-2, and the expression of the reporter protein per unit number of viable cells was obtained. The inhibition rate (Inhibition (%)) of the expression of the reporter protein exerted by each candidate substance was calculated in accordance with the following formula.
In the above formula, (Reporter Expression)FICZ indicates the expression of the reporter protein per unit number of viable cells obtained from the reference samples: i.e., the cells incubated in the medium containing 5,000 nM of FICZ but not containing candidate substances. Meanwhile, (Reporter Expression)FICZ+TEST SAMPLE indicates the expression of the reporter protein per unit number of viable cells obtained from the cells incubated in the medium containing 5,000 nM of FICZ and a candidate substance. The results shown in FIG. 6 were the mean obtained from three independent experiments. The error bars represent the standard error (SE).

[3] = tested on: TIMP-1 (Tissue Inhibitor of Matrix Metalloprotease-1) mRNA; test: TIMP-1 mRNA expression in HaCaT cells, quantitative PCR; assay type: cell-based, human; conditions: 100 μM, 24 hours
Experimental: Specifically, the mRNA expression of TIMP-1 in the HaCaT cells treated with Fraglide-1 was evaluated by performing quantitative PCR using cDNA obtained in Experiment 4-1. The procedure of quantitative PCR was the same as described in Experiment 4-1 except that the primers shown in below Table 5 were used.
(§1) In FIG. 14, the results obtained for each sample were shown in relative values normalized by setting the expression level of TIMP-1 in the HaCaT cells incubated for 24 hours in DMEM medium not containing Fraglide-1 (i.e., the non-treated HaCaT cells) as 1. The results shown in FIG. 14 are the mean of values obtained from three independent experiments, and the error bars represent standard deviation (SD).
On the other hand, as comparison, the similar evaluation was performed for retinoic acid and nicotinamide, which are known as active ingredients of anti-wrinkle agents, using cDNA obtained in Experiment 4-2. The procedure for quantitative PCR was the same as already described in Experiment 3-1, except that the primers shown in Table 5 were used.
as §1, with “15,” for “14,”, “either retinoic acid and nicotinic acid amide” for “Fraglide-1”, “15” for “14”

| Compound | CC50 (XRE-NLuc::HaCaT cells) [µM] | Literature Value Maximum Effective concentration Max. Induction [1] | Inhibition (%) of expression of the reporter protein triggered by FICZ ([2]; 12.5 μM test substance) [%] | Inhibition (%) of expression of the reporter protein triggered by FICZ ([2]; 25 μM test substance) [%] | Inhibition (%) of expression of the reporter protein triggered by FICZ ([2]; 50 μM test substance) [%] | expression level of TIMP-1 compared to non-treated HaCaT cells [3] | expression level of TIMP-1 mRNA vs non-treated HaCaT cells (in words) ([3]; Fraglide-1 1 μM, 10 μM, retinoic acid / nicotinic acid amide at predetermined concentrations) |
| --- | --- | --- | --- | --- | --- | --- | --- |
| 6-formylindolo[3,2-b] carbazole [FICZ] | > 5 | 1** μM | – | – | – | – | – |
| O=C1C=C(c2ccccc2)C(O)O1 (stereo not shown) [Fraglide-1, 5-hydroxy-4-phenyl-2(5H)butenolide] | – | – | 58 | 68 | 83 | about 4 fold | concentration-dependent increase |
